Laboratory results: patent US20240133870A1, “COMBINED TREATMENT FOR CANCER” (Yeda Research and Development Co. Ltd., priority 2021, published 2024)

Legend:
G361 melanoma cells = assay: FGFR inhibitor abrogation of factor-mediated resistance (GFP, rScore); assay type: cell-based, human; details: vemurafenib 2 μM; EMAPII or AIMP1 10 ng/ml; FGFR inhibitor 0.5 μM
Description: PLX4720—BRAFi, 2 μM; PD184352—MEKi, 1 μM, EMAPII—50 ng/ml. P-value of the difference between GFP(drug)/GFP(no-treatment) and GFP(drug+EMAPII)/GFP(no-treatment), at day 7, was calculated by two-sided t-test. ** p<0.01, *** p<0.001. Average rScore (+/−SE) was calculated from at least four different experiments. […] A total of 69 experiments are shown. […] The effect of FGF2 (10 ng/ml), EMAPII (10 ng/ml) or AIMP1 (10 ng/ml) on G361 μmelanoma cells treated with vemurafenib (2 μM) was measured with or without the FGFR inhibitor PD17307 (0.5 μM). Data represent an average of 4 to 8 experiments. P-value was calculated by two-sided t-test. *** p<0.001. Error bars represent standard error. […] 18 putative AIMP1 receptors were knocked down by shRNAs (on average 6.8 shRNAs/gene) in the G361 cell line. shRNAs toward luciferase served as a negative control. The effect of AIMP1 (50 ng/ml) on the sensitivity to PLX4720 (2 μM) was tested in all knockdown clones and normalized to no-shRNA control. Results represent the average of 3-8 experiments. Error bars represent standard error. P-values were calculated by two-sided t-test relative to luciferase. * p<0.05, Q-value=0.1. […] The average of 4 experiments is presented. Error bars represent standard error. P-value was calculated by two-sided t-test. *** p<0.001.

[1] = test system: SK-MEL-5 BRAF (V600E) melanoma cells; assay: Co-culture of stroma (WI-38 or HS-5) and cancer cells; assay type: cell-based, human; details: co-culture with WI-38; inhibitor added to vemurafenib
Description: SK-MEL-5 BRAF (V600E) melanoma cells were co-cultured with the lung-derived stromal cell line WI-38 or with the bone marrow-derived stromal cell line HS-5 with or without vemurafenib (4 μM). […] Vehicle—DMSO, EGFRi—gefitinib (0.1 μM), EGFRi/HER2i—lapatinib (10 nM), METi—crizotinib (0.1 μM), FGFRi—AZD4547 (50 nM), NFkB/TNFRi—CAPE (10 μM), TGFBRi-LY2109761 (0.5 μM), gp130i—SC144 (1 nM). […] Error bars represent standard error. […] Error bars represent standard error. […] Human BRAF (V600E) melanoma cell lines UACC62 or G361 were used to generate xenograft tumor models in various tissues of nude mice. When tumors reached a volume of 500-700 μmm^3, they were resected, sliced, and cultured ex-vivo in the presence of different drug combinations or DMSO control. Following 4 days of drug treatment, slices were fixed, embedded in paraffin blocks, and subjected to immunohistochemistry, using anti-pERK antibody, or to immuno-fluorescence, using anti-pFGFR1 antibody. BRAFi (vemurafenib, 4 μM), FGFRi (AZD4547, 2 μM). Scale bar represents 50 μm.
Four hours later, the melanoma BRAF (V600E) mutated cell line SK-MEL-5 was seeded on top of the stromal cells at a concentration of 1700 cells per well, or seeded without stroma. […] Concentrations of the inhibitors were based on dose curves with SK-MEL-5. For each inhibitor of potential mechanism of resistance, the maximal concentration with minimal effect (toxicity) on cell growth was selected (Cmax).
To compare rScore value of stroma-mediated resistance with or without a given inhibitor, the rScore values of each inhibitor in the presence of stroma, was calculated. As a reduction in rScore may stem from mere toxicity of the inhibitor, rather than the abrogation of the stroma mediated resistance, each inhibitor rScore was penalized by its toxicity.
rScoreinhibitor=rScoreinhibitor+(rScorestroma−rScoreinhibitor)*tOxicitY(Cmax)inhibitor

HCC4006 xenografts = assay: EVOC viability; assay type: cell-based, human; details: crizotinib 8 μM added to erlotinib 4 μM
Description: Vehicle—DMSO, METi-crizotinib 8 μM, EGFRi—erlotinib 4 μM. Each black dot in a given treatment condition represents a different tumor. P-values were calculated by one-sided t-test. * P<0.05. Error bars represent standard error. […] Viability percentage is presented per treatment. Scale bar represents 50 μm.
Freshly resected tumors were cut to 250 μm slices (Compresstome, VF-300) in cold Williams-E medium (Sigma, W1878). Slices were placed on the surface of titanium meshes which were pre-incubated in DMEM/F-12 (HAM) (01-170-1A, BI) supplemented with 10% FCS, 100 units/ml Penicillin and Streptomycin, 2 μmM Glutamine, […], and 2.5 μg/ml Amphotericin B (sigma, A2942), at 37° C. and 80% oxygen/5% CO2. […]
Immunohistochemistry of EVOC tissues: To assess response therapy, 4 μm FFPE tissue slices were stained with H&E, or with specific antibodies: anti-pERK (Cell Signaling, #4370) followed by HRP conjugated secondary antibody (anti-Rabbit HRP, ZUC032, ZytoChem) and DAB staining (DAB substrate kit, DAB057, ZytoChem). […] All slides were scanned using the Pannoramic SCAN II (3[…]) and analyzed by a pathologist. The percentage of viable cancer cells was morphologically assessed on H&E stained sections by a pathologist as the ratio between viable cancer cell area and total cancer area (viable cancer cells plus necrotic cancer cells).

human NSCLC tumor biopsy = assay: EVOC of NSCLC patient biopsies, viability; assay type: cell-based; details: treatment-naïve patient; in combination with osimertinib 4 μM
Excerpt: Error bars represent standard error. […] Scale bar represents 50 μm. […] Error bars represent standard error. […] Scale bar represents 50 μm.
Scale bar represents 50 μm. […] Scale bar represents 50 μm. […] Scale bar represents 50 μm.

H1975 xenografts = assay: EVOC viability; assay type: cell-based, human; details: added to afatinib 3-4 μM
Description: Vehicle—DMSO, FGFRi—AZD4547 2-4 μM, INSRi—linsitinib 2 μM, METi—crizotinib 2-4 μM, EGFRi—afatinib 3-4 μM. Each black dot in a given treatment condition represents a different tumor. P-values were calculated by two-sided t-test. ** P<0.01, * P<0.05. Error bars represent standard error. […] Viability percentage is given per treatment combination. Scale bar represents 50 μm. […] Error bars represent standard error. […] EGFRi—gefitinib 1.6 μM, FGFRi—AZD4547 0.2 μM. The percentage of viable cancer cells was morphologically assessed on H&E stained sections by a pathologist as the ratio between viable cancer cell area and total cancer area (viable cancer cells plus necrotic cancer cells). […] Viability score was calculated based on the entire field of view. […]
Immunohistochemistry of EVOC tissues: To assess response therapy, 4 μm FFPE tissue slices were stained with H&E, or with specific antibodies: anti-pERK (Cell Signaling, #4370) followed by HRP conjugated secondary antibody (anti-Rabbit HRP, ZUC032, ZytoChem) and DAB staining (DAB substrate kit, DAB057, ZytoChem). […] All slides were scanned using the Pannoramic SCAN II (3[sequence]) and analyzed by a pathologist. The percentage of viable cancer cells was morphologically assessed on H&E stained sections by a pathologist as the ratio between viable cancer cell area and total cancer area (viable cancer cells plus necrotic cancer cells).

Row | Compound | abrogation of EMAPII/AIMP1-mediated resistance (G361 melanoma cells) | abrogation of stroma-mediated resistance to vemurafenib [1] | innate resistance to EGFRi (HCC4006 xenografts) | cancer cell viability (human NSCLC tumor biopsy) | cell viability (H1975 xenografts)
1 | CCN(CC)CCCCNc1ncc2cc(-c3cc(OC)cc(OC)c3)c(NC(=O)NC(C)(C)C)nc2n1 [PD17307] | abrogates EMAPII/AIMP1-mediated resistance |  |  |  | 
2 | C[C@@H](Oc1cc(-c2cnn(C3CCNCC3)c2)cnc1N)c1c(Cl)ccc(F)c1Cl [crizotinib] |  | abrogated the resistance effect of WI-38 | reduced innate resistance to the EGFRi erlotinib | synergistic killing effect | significantly reduced cell viability
